Data from US6995143B2, “Macrolides with antibacterial activity” (Basilea Pharmaceutica AG, priority 2002, dated 2006).
≈ marks a conversion by molar mass, not a printed value.

Key:
Format in all cases: cell-based
[1] = system: Escherichia coli ATCC 25922; experiment: MIC, standard microdilution technique
Outline: (§1)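 MIC endpoints reflect testing per the 2000 NCCLS M7-A5 standard method for aerobes.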

[2] = system: Staphylococcus aureus 1086; experiment: MIC, standard microdilution technique
Outline: as §1

[3] = system: Staphylococcus aureus 745; experiment: MIC, standard microdilution technique
Outline: as §1

[4] = system: Staphylococcus aureus ATCC 29213; experiment: MIC, standard microdilution technique
Outline: as §1

[5] = system: Streptococcus pneumoniae 12288; experiment: MIC, standard microdilution technique
Outline: as §1

[6] = system: Streptococcus pneumoniae SL199T; experiment: MIC, standard microdilution technique
Outline: as §1

[7] = system: Streptococcus pneumoniae l/l; experiment: MIC, standard microdilution technique
Outline: as §1

[8] = system: Streptococcus pneumoniae ¼; experiment: MIC, standard microdilution technique
Outline: as §1

[9] = system: Haemophilus influenzae 12214; experiment: MIC, standard agar dilution method using HTM medium
Outline: (§2)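 Susceptibility of H. influenzae isolates is determined by dilution testing conducted to the NCCLS M7-A5 approved standard.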

[10] = system: Haemophilus influenzae B1501; experiment: as above
Outline: as §2

[11] = system: Haemophilus influenzae QK12/87; experiment: as above
Outline: as §2

[12] = system: Haemophilus influenzae QK50; experiment: as above
Outline: as §2

minimum inhibitory concentration (MIC), Strain D [1]	minimum inhibitory concentration (MIC), Strain B [2]	minimum inhibitory concentration (MIC), Strain C [3]	minimum inhibitory concentration (MIC), Strain A [4]	minimum inhibitory concentration (MIC), Strain H [5]	minimum inhibitory concentration (MIC), Strain G [6]	minimum inhibitory concentration (MIC), Strain E [7]	minimum inhibitory concentration (MIC), Strain F [8]	minimum inhibitory concentration (MIC), Strain K [9]	minimum inhibitory concentration (MIC), Strain M [10]	minimum inhibitory concentration (MIC), Strain I [11]	minimum inhibitory concentration (MIC), Strain L [12]	Compound
>32 µg/mL	0.25 µg/mL (≈ 0.311 µM)	>32 µg/mL	0.25 µg/mL (≈ 0.311 µM)	>32 µg/mL	16 µg/mL (≈ 19.9 µM)	<=0.06 μg/ml	2 µg/mL (≈ 2.49 µM)	8 µg/mL (≈ 9.96 µM)	8 µg/mL (≈ 9.96 µM)	8 µg/mL (≈ 9.96 µM)	8 µg/mL (≈ 9.96 µM)	CC[C@H]1OC(=O)[C@H](C)C(=O)[C@H](C)[C@@H](O[C@@H]2O[C@H](C)C[C@H](N(C)C)[C@H]2O)[C@](C)(OC)C[C@@H](C)C(=O)[C@H](C)[C@H]2[C@@H](SCC(=O)N3CCc4ccccc43)C(=O)O[C@@]21C [Example 18]
>32 µg/mL	<=0.06 μg/ml	>32 µg/mL	0.125 µg/mL (≈ 0.15 µM)	>32 µg/mL	16 µg/mL (≈ 19.2 µM)	<=0.06 μg/ml	32 µg/mL (≈ 38.3 µM)	16 µg/mL (≈ 19.2 µM)	8 µg/mL (≈ 9.58 µM)	16 µg/mL (≈ 19.2 µM)	16 µg/mL (≈ 19.2 µM)	CC[C@H]1OC(=O)[C@H](C)C(=O)[C@H](C)[C@@H](O[C@@H]2O[C@H](C)C[C@H](N(C)C)[C@H]2O)[C@](C)(OC)C[C@@H](C)C(=O)[C@H](C)[C@H]2[C@@H](SCC(=O)NCc3ccc4c(c3)OCO4)C(=O)O[C@@]21C [Example 30]
>32 µg/mL	0.25 µg/mL (≈ 0.32 µM)	>32 µg/mL	0.5 µg/mL (≈ 0.64 µM)	>32 µg/mL	32 µg/mL (≈ 41 µM)	<=0.06 μg/ml	>32 µg/mL	8 µg/mL (≈ 10.2 µM)	8 µg/mL (≈ 10.2 µM)	8 µg/mL (≈ 10.2 µM)	8 µg/mL (≈ 10.2 µM)	CC[C@H]1OC(=O)[C@H](C)C(=O)[C@H](C)[C@@H](O[C@@H]2O[C@H](C)C[C@H](N(C)C)[C@H]2O)[C@](C)(OC)C[C@@H](C)C(=O)[C@H](C)[C@H]2[C@@H](SCC(=O)NCc3ccco3)C(=O)O[C@@]21C [Example 31]
>32 µg/mL	0.5 µg/mL (≈ 0.59 µM)	>32 µg/mL	0.25 µg/mL (≈ 0.295 µM)	>32 µg/mL	>32 µg/mL	<=0.06 μg/ml	8 µg/mL (≈ 9.43 µM)	>32 µg/mL	32 µg/mL (≈ 37.7 µM)	32 µg/mL (≈ 37.7 µM)	>32 µg/mL	CC[C@H]1OC(=O)[C@H](C)C(=O)[C@H](C)[C@@H](O[C@@H]2O[C@H](C)C[C@H](N(C)C)[C@H]2O)[C@](C)(OC)C[C@@H](C)C(=O)[C@H](C)[C@H]2[C@@H](SCC(=O)NCc3nc4ccccc4s3)C(=O)O[C@@]21C [Example 34]
>32 µg/mL	8 µg/mL (≈ 10.2 µM)	>32 µg/mL	8 µg/mL (≈ 10.2 µM)	>32 µg/mL	16 µg/mL (≈ 20.5 µM)	<=0.06 μg/ml	>32 µg/mL	32 µg/mL (≈ 41 µM)	16 µg/mL (≈ 20.5 µM)	16 µg/mL (≈ 20.5 µM)	16 µg/mL (≈ 20.5 µM)	CC[C@H]1OC(=O)[C@H](C)C(=O)[C@H](C)[C@@H](O[C@@H]2O[C@H](C)C[C@H](N(C)C)[C@H]2O)[C@](C)(OC)C[C@@H](C)C(=O)[C@H](C)[C@H]2[C@@H](SCC(=O)NCc3ncc[nH]3)C(=O)O[C@@]21C [Example 35]

The next lines start with the compound.

Compound	minimum inhibitory concentration (MIC), Strain D [1]	minimum inhibitory concentration (MIC), Strain B [2]	minimum inhibitory concentration (MIC), Strain C [3]	minimum inhibitory concentration (MIC), Strain A [4]	minimum inhibitory concentration (MIC), Strain H [5]	minimum inhibitory concentration (MIC), Strain G [6]	minimum inhibitory concentration (MIC), Strain E [7]	minimum inhibitory concentration (MIC), Strain F [8]	minimum inhibitory concentration (MIC), Strain K [9]	minimum inhibitory concentration (MIC), Strain M [10]	minimum inhibitory concentration (MIC), Strain I [11]	minimum inhibitory concentration (MIC), Strain L [12]
CC[C@H]1OC(=O)[C@H](C)C(=O)[C@H](C)[C@@H](O[C@@H]2O[C@H](C)C[C@H](N(C)C)[C@H]2O)[C@](C)(OC)C[C@@H](C)C(=O)[C@H](C)[C@H]2[C@@H](SCCS(=O)(=O)NCc3ccccc3)C(=O)O[C@@]21C [Example 24]	>32 µg/mL	1 µg/mL (≈ 1.19 µM)	>32 µg/mL	2 µg/mL (≈ 2.38 µM)	>32 µg/mL	32 µg/mL (≈ 38 µM)	<=0.06 μg/ml	>32 µg/mL	>32 µg/mL	32 µg/mL (≈ 38 µM)	32 µg/mL (≈ 38 µM)	>32 µg/mL
CC[C@H]1OC(=O)[C@H](C)C(=O)[C@H](C)[C@@H](O[C@@H]2O[C@H](C)C[C@H](N(C)C)[C@H]2O)[C@](C)(OC)C[C@@H](C)C(=O)[C@H](C)[C@H]2[C@@H](SCCNS(=O)(=O)c3cccc4c(N(C)C)cccc34)C(=O)O[C@@]21C [Example 28]	>32 µg/mL	1 µg/mL (≈ 1.09 µM)	>32 µg/mL	1 µg/mL (≈ 1.09 µM)	>32 µg/mL	16 µg/mL (≈ 17.4 µM)	<=0.06 μg/ml	32 µg/mL (≈ 34.8 µM)	>32 µg/mL	>32 µg/mL	32 µg/mL (≈ 34.8 µM)	32 µg/mL (≈ 34.8 µM)
CC[C@H]1OC(=O)[C@H](C)C(=O)[C@H](C)[C@@H](O[C@@H]2O[C@H](C)C[C@H](N(C)C)[C@H]2O)[C@](C)(OC)C[C@@H](C)C(=O)[C@H](C)[C@H]2[C@@H](SCCNS(=O)(=O)c3cccc4cccnc34)C(=O)O[C@@]21C [Example 29]	>32 µg/mL	<=0.06 μg/ml	>32 µg/mL	<=0.06 μg/ml	>32 µg/mL	2 µg/mL (≈ 2.28 µM)	<=0.06 μg/ml	>32 µg/mL	8 µg/mL (≈ 9.11 µM)	8 µg/mL (≈ 9.11 µM)	8 µg/mL (≈ 9.11 µM)	8 µg/mL (≈ 9.11 µM)
CC[C@H]1OC(=O)[C@H](C)C(=O)[C@H](C)[C@@H](O[C@@H]2O[C@H](C)C[C@H](N(C)C)[C@H]2O)[C@](C)(OC)C[C@@H](C)C(=O)[C@H](C)[C@H]2[C@@H](SCC(=O)Nc3cc(C)on3)C(=O)O[C@@]21C [Example 33]	>32 µg/mL	0.5 µg/mL (≈ 0.639 µM)	>32 µg/mL	0.5 µg/mL (≈ 0.639 µM)	>32 µg/mL	32 µg/mL (≈ 40.9 µM)	<=0.06 μg/ml	>32 µg/mL	8 µg/mL (≈ 10.2 µM)	8 µg/mL (≈ 10.2 µM)	16 µg/mL (≈ 20.5 µM)	8 µg/mL (≈ 10.2 µM)
